Results as given in ChEMBL document CHEMBL3044789, “Comparing weed and crop seedling response to pre-emergence pendimethalin application in Corchorus olitorius and Abelmoschus esculentus” (Crop Prot, 2006).

Legend:
Commelina diffusa [1] = experiment: Herbicidal activity against Commelina diffusa in Corchorus olitorius plots assessed as weed cover at 0.66 kg a.i/ha after 4 weeks (reference value: 20.1+/- 0.57 %); assay type: functional
Calopogonium mucunoides [2] = experiment: Herbicidal activity against Calopogonium mucunoides in Abelmoschus esculentus plots assessed as weed cover at 0.99 kg a.i/ha after 7 weeks (reference value: 14.7 +/- 0.46 %); assay type: functional
Commelina diffusa [3] = experiment: Herbicidal activity against Commelina diffusa in Abelmoschus esculentus plots assessed as weed cover at 0.66 kg a.i/ha after 4 weeks (reference value: 22.6 +/- 0.49 %); assay type: functional
Chromolaena odorata [4] = experiment: Herbicidal activity against Chromolaena odorata in Corchorus olitorius plots assessed as weed cover at 0.33 kg a.i/ha after 2 weeks (reference value: 81.7 +/- 0.43 %); assay type: functional
Calopogonium mucunoides [5] = experiment: Herbicidal activity against Calopogonium mucunoides in Abelmoschus esculentus plots assessed as weed recovery at 0.66 kg a.i/ha after 2 weeks (reference value: 60.1 +/- 0.46 %); assay type: functional
Calopogonium mucunoides [6] = experiment: Herbicidal activity against Calopogonium mucunoides in Abelmoschus esculentus plots assessed as weed cover at 0.66 kg a.i/ha after 2 weeks (reference value: 63.5 +/- 0.29 %); assay type: functional
Corchorus olitorius [7] = experiment: Phytotoxicity in Corchorus olitorius assessed as seedling emergence at 0.33 kg a.i/ha treated to soil after 7 weeks (reference value: 95 +/- 0.05 %); assay type: organism-based; settings: in vivo, other, 1176 h
Chromolaena odorata [8] = experiment: Herbicidal activity against Chromolaena odorata in Corchorus olitorius plots assessed as weed cover at 0.33 kg a.i/ha after 7 weeks (reference value: 1.7 +/- 0.56 %); assay type: functional
[9] = system: Rottboellia cochinchinensis; experiment: Herbicidal activity against Rottboellia cochinchinensis in Corchorus olitorius plots assessed as weed cover at 0.33 kg a.i/ha after 4 weeks (reference value: 20.1+/- 0.57 %); assay type: functional
Calopogonium mucunoides [10] = experiment: Herbicidal activity against Calopogonium mucunoides in Abelmoschus esculentus plots assessed as major weed growth at 0.99 kg a.i/ha after 2 weeks; assay type: functional
[11] = system: Rottboellia cochinchinensis; experiment: Herbicidal activity against Rottboellia cochinchinensis in Abelmoschus esculentus plots assessed as weed cover at 0.33 kg a.i/ha after 7 weeks (reference value: 14.7 +/- 0.46 %); assay type: functional
Asteraceae = experiment: Herbicidal activity against Aspilia africana in Corchorus olitorius plots assessed as weed cover at 0.66 kg a.i/ha after 4 weeks (reference value: 20.1+/- 0.57 %); assay type: functional
Ageratum conyzoides [12] = experiment: Herbicidal activity against Ageratum conyzoides in Abelmoschus esculentus plots assessed as weed recovery at 0.33 kg a.i/ha after 2 weeks (reference value: 60.1 +/- 0.46 %); assay type: functional
Corchorus olitorius [13] = experiment: Phytotoxicity in Corchorus olitorius assessed as seedling emergence at 0.66 kg a.i/ha treated to soil after 7 weeks (reference value: 95 +/- 0.05 %); assay type: organism-based; settings: in vivo, other, 1176 h
Calopogonium mucunoides [14] = experiment: Herbicidal activity against Calopogonium mucunoides in Abelmoschus esculentus plots assessed as weed cover at 0.33 kg a.i/ha after 7 weeks (reference value: 14.7 +/- 0.46 %); assay type: functional
Talinum fruticosum = experiment: Herbicidal activity against Talinum fruticosum in Corchorus olitorius plots assessed as weed cover at 0.99 kg a.i/ha after 2 weeks (reference value: 81.7 +/- 0.43 %); assay type: functional
Abelmoschus esculentus [15] = experiment: Phytotoxicity in Abelmoschus esculentus assessed as shoot length at 0.66 kg a.i/ha treated to soil after 7 weeks (reference value: 8.5 +/- 0.34 mm); assay type: organism-based; settings: in vivo, other, 1176 h
Calopogonium mucunoides [16] = experiment: Herbicidal activity against Calopogonium mucunoides in Corchorus olitorius plots assessed as weed cover at 0.99 kg a.i/ha after 2 weeks (reference value: 81.7 +/- 0.43 %); assay type: functional
Euphorbia heterophylla [17] = experiment: Herbicidal activity against Euphorbia heterophylla in Abelmoschus esculentus plots assessed as weed cover at 0.66 kg a.i/ha after 2 weeks (reference value: 63.5 +/- 0.29 %); assay type: functional
Euphorbia heterophylla [18] = experiment: Herbicidal activity against Euphorbia heterophylla in Abelmoschus esculentus plots assessed as weed cover at 0.99 kg a.i/ha after 2 weeks (reference value: 63.5 +/- 0.29 %); assay type: functional
Corchorus olitorius [19] = experiment: Phytotoxicity in Corchorus olitorius assessed as seedling injury at 1.32 kg a.i/ha applied as solution after 7 weeks relative to control; assay type: organism-based; settings: in vivo, other, 1176 h
Ageratum conyzoides [20] = experiment: Herbicidal activity against Ageratum conyzoides in Abelmoschus esculentus plots assessed as weed cover at 1.32 kg a.i/ha after 4 weeks (reference value: 22.6 +/- 0.49 %); assay type: functional
Synedrella nodiflora [21] = experiment: Herbicidal activity against Synedrella nodiflora in Corchorus olitorius plots assessed as weed cover at 1.32 kg a.i/ha after 2 weeks (reference value: 81.7 +/- 0.43 %); assay type: functional
Corchorus olitorius [22] = experiment: Phytotoxicity in Corchorus olitorius assessed as shoot length at 0.33 kg a.i/ha treated to soil after 7 weeks (reference value: 23.7 +/- 0.10 mm); assay type: organism-based; settings: in vivo, other, 1176 h
Euphorbia heterophylla [23] = experiment: Herbicidal activity against Euphorbia heterophylla in Abelmoschus esculentus plots assessed as weed cover at 1.32 kg a.i/ha after 4 weeks (reference value: 22.6 +/- 0.49 %); assay type: functional
Synedrella nodiflora [24] = experiment: Herbicidal activity against Synedrella nodiflora in Abelmoschus esculentus plots assessed as major weed growth at 0.99 kg a.i/ha after 2 weeks; assay type: functional
Euphorbia heterophylla [25] = experiment: Herbicidal activity against Euphorbia heterophylla in Corchorus olitorius plots assessed as weed cover at 0.66 kg a.i/ha after 7 weeks (reference value: 1.7 +/- 0.56 %); assay type: functional
Abelmoschus esculentus [26] = experiment: Phytotoxicity in Abelmoschus esculentus assessed as crop seedling injury at 0.99 kg a.i/ha after 2 weeks relative to untreated control; assay type: organism-based; settings: in vivo, 336 h
Chromolaena odorata [27] = experiment: Herbicidal activity against Chromolaena odorata in Corchorus olitorius plots assessed as weed cover at 0.99 kg a.i/ha after 4 weeks (reference value: 20.1+/- 0.57 %); assay type: functional
Ageratum conyzoides [28] = experiment: Herbicidal activity against Ageratum conyzoides in Corchorus olitorius plots assessed as weed cover at 0.33 kg a.i/ha after 4 weeks (reference value: 20.1+/- 0.57 %); assay type: functional
Calopogonium mucunoides [29] = experiment: Herbicidal activity against Calopogonium mucunoides in Abelmoschus esculentus plots assessed as weed cover at 0.66 kg a.i/ha after 4 weeks (reference value: 22.6 +/- 0.49 %); assay type: functional
Abelmoschus esculentus [30] = experiment: Phytotoxicity in Abelmoschus esculentus assessed as root length at 1.32 kg a.i/ha applied as solution after 7 weeks (reference value: 23 +/- 0.34 mm); assay type: organism-based; settings: in vivo, other, 1176 h
Calopogonium mucunoides [31] = experiment: Herbicidal activity against Calopogonium mucunoides in Corchorus olitorius plots assessed as weed cover at 0.33 kg a.i/ha after 7 weeks (reference value: 1.7 +/- 0.56 %); assay type: functional
Abelmoschus esculentus [32] = experiment: Phytotoxicity in Abelmoschus esculentus assessed as seed germination at 0.99 kg a.i/ha applied as solution after 7 weeks (reference value: 85.7 +/- 0.36 %); assay type: organism-based; settings: in vivo, other, 1176 h
Synedrella nodiflora [33] = experiment: Herbicidal activity against Synedrella nodiflora in Abelmoschus esculentus plots assessed as weed cover at 0.99 kg a.i/ha after 2 weeks (reference value: 63.5 +/- 0.29 %); assay type: functional
Corchorus olitorius [34] = experiment: Phytotoxicity in Corchorus olitorius assessed as seed germination at 0.66 kg a.i/ha applied as solution after 7 weeks relative to untreated control; assay type: organism-based; settings: in vivo, other, 1176 h

SMILES: CCC(CC)Nc1c([N+](=O)[O-])cc(C)c(C)c1[N+](=O)[O-] [PENDIMETHALIN]
- Activity (Commelina diffusa [1]): 63.3%
- Activity (Calopogonium mucunoides [2]): 83.9%
- Activity (Commelina diffusa [3]): 47.9%
- Activity (Chromolaena odorata [4]): 63.3%
- Activity (Calopogonium mucunoides [5]): 47.9%
- Activity (Calopogonium mucunoides [6]): 50.8%
- Activity (Corchorus olitorius [7]): 85%
- Activity (Chromolaena odorata [8]): 100%
- Activity [9]: 73.3%
- Activity (Calopogonium mucunoides [10]): 31 /m2
- Activity [11]: 90%
- Activity (Asteraceae): 63.3%
- Activity (Ageratum conyzoides [12]): 39.2%
- Activity (Corchorus olitorius [13]): 83.3%
- Activity (Calopogonium mucunoides [14]): 90%
- Activity (Talinum fruticosum): 51.7%
- Activity (Abelmoschus esculentus [15]): 5.8 mm
- Activity (Calopogonium mucunoides [16]): 51.7%
- Activity (Euphorbia heterophylla [17]): 50.8%
- Activity (Euphorbia heterophylla [18]): 47.9%
- Activity (Corchorus olitorius [19]): 66.7%
- Activity (Ageratum conyzoides [20]): 36.2%
- Activity (Synedrella nodiflora [21]): 41.7%
- Activity (Corchorus olitorius [22]): 18.8 mm
- Activity (Euphorbia heterophylla [23]): 36.2%
- Activity (Synedrella nodiflora [24]): 31 /m2
- Activity (Euphorbia heterophylla [25]): 100%
- Activity (Abelmoschus esculentus [26]): 47.9%
- Activity (Chromolaena odorata [27]): 48.3%
- Activity (Ageratum conyzoides [28]): 73.3%
- Activity (Calopogonium mucunoides [29]): 47.9%
- Activity (Abelmoschus esculentus [30]): 11.5 mm
- Activity (Calopogonium mucunoides [31]): 100%
- Activity (Abelmoschus esculentus [32]): 41.1%
- Activity (Synedrella nodiflora [33]): 47.9%
- Activity (Corchorus olitorius [34]): 84.7%
